Measured values published in ChEMBL document CHEMBL1909046, “DrugMatrix in vitro pharmacology data”.

Experiments:
[1] = molecular target: T1, Neuropeptide Y receptor type 1 (Homo sapiens, UniProt P25929); type: cell membranes, Membrane; details: sk-n-mc; further: in other assays of this panel Not Active means under 50% inhibition at 10 µM
T1 sequence (P25929 whole entry): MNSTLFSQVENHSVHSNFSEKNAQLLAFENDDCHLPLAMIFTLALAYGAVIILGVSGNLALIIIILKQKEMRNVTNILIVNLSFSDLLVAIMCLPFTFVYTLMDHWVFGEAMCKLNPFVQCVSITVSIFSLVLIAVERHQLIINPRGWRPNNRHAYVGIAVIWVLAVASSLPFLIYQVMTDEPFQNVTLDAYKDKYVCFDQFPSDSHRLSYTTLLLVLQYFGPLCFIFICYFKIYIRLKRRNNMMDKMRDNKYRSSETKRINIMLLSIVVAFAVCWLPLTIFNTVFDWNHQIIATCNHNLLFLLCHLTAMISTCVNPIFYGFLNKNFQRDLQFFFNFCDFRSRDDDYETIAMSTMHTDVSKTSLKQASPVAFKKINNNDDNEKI

[2] = molecular target: T2, 3-hydroxy-3-methylglutaryl-coenzyme A reductase (Homo sapiens, UniProt P04035); design: species or system Escherichia coli;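 further: enzyme inhibition assay of HMG-CoA reductase using radiolabeled [14C]HMG-CoA as substrate; in other assays of this panel Not Active means under 50% inhibition at 10 µM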
T2 sequence (P04035 whole entry): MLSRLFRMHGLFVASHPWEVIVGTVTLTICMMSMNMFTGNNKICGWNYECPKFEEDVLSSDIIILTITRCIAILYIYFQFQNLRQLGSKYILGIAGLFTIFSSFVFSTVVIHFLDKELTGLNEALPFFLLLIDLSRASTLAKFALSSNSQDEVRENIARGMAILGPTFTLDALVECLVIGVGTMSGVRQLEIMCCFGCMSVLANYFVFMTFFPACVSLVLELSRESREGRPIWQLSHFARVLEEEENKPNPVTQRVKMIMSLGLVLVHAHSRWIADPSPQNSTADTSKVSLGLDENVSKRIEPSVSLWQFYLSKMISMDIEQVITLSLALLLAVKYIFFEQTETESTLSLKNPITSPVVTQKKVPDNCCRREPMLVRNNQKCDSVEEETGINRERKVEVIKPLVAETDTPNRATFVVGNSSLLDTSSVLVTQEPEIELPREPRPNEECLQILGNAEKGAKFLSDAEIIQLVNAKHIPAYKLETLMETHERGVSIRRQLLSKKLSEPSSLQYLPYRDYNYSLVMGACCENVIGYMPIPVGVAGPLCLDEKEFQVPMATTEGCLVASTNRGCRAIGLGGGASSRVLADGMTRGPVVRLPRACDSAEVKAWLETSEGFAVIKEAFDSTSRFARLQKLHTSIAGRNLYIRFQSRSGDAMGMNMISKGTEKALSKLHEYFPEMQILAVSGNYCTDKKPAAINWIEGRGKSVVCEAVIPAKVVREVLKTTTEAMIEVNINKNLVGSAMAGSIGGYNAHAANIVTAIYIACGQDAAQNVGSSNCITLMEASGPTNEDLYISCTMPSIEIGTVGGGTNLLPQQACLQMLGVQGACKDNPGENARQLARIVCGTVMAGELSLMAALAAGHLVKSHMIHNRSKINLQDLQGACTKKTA

[3] = molecular target: T3, Leukotriene C4 synthase (Cavia porcellus, UniProt A6XA80); type: tissue-based, Lung;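 further: enzyme inhibition assay of leukotriene C4 synthase, using LTA4 as the substrate; in other assays of this panel Not Active means under 50% inhibition at 10 µM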
T3 sequence (A6XA80 whole entry): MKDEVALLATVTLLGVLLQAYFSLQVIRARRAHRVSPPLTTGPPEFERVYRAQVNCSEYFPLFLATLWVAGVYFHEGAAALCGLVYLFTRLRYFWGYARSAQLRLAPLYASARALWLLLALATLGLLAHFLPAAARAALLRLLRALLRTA

[4] = molecular target: Glycine receptor (Rattus norvegicus, UniProt P22771+P24524+P07727+P20781); type: cell membranes, Wistar, Spinal cord, Membrane; further: in other assays of this panel Not Active means under 50% inhibition at 10 µM
[5] = molecular target: Cytochrome P450 3A4 (Homo sapiens, UniProt P08684); details: bti-tn-5b1-4; further: in other assays of this panel Not Active means under 50% inhibition at 10 µM
Chain of Cytochrome P450 3A4 (P08684 whole entry): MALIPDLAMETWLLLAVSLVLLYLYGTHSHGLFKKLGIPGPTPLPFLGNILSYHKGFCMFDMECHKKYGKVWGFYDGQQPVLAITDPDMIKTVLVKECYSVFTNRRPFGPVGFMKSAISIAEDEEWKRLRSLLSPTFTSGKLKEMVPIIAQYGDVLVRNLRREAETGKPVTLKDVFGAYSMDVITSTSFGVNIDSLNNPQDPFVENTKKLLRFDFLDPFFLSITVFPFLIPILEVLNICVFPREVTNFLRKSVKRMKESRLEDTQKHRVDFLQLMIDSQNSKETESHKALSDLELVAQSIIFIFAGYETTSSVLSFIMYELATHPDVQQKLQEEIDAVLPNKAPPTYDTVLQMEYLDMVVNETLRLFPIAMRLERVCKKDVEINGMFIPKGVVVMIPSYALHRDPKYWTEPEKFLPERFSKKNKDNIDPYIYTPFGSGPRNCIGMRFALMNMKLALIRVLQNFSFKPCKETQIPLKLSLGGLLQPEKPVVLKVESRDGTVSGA

[6] = DRUGMATRIX: Leukotriene, BLT (LTB4) radioligand binding (ligand: [3H]LTB4); type: cell membranes, Membrane; details: u-937; Not Active = under 50% inhibition at 10 µM
[7] = DRUGMATRIX: Calcium Channel Type L, Benzothiazepine radioligand binding (ligand: [3H] Diltiazem); type: cell membranes, Rattus norvegicus, Wistar, Brain, Membrane; details: Not Active = under 50% inhibition at 10 µM
[8] = DRUGMATRIX: Tumor Necrosis Factor (TNF), Non-Selective radioligand binding (ligand: [125I] TNF-alpha); type: cell membranes, Membrane; details: u-937; Not Active = under 50% inhibition at 10 µM

COc1ccccc1N
Not Active: IC50 [1] | IC50 [2] | IC50 [3] | IC50 [4] | IC50 [5] | Ki [5] | IC50 [6] | Ki [6] | IC50 [7] | Ki [7] | IC50 [8] | Ki [8]

CC[C@]1(O)C[C@@H]2CN(CCc3c([nH]c4ccccc34)[C@@](C(=O)OC)(c3cc4c(cc3OC)N(C)[C@H]3[C@@](O)(C(N)=O)[C@H](O)[C@]5(CC)C=CCN6CC[C@]43[C@@H]65)C2)C1 [VINDESINE]
Not Active: IC50 [1] | IC50 [2] | IC50 [3] | IC50 [4] | IC50 [5] | Ki [5] | IC50 [6] | Ki [6] | IC50 [7] | Ki [7] | IC50 [8] | Ki [8]

C[S+](C)[O-] [DIMETHYL SULFOXIDE]
Not Active: IC50 [1] | IC50 [2] | IC50 [3] | IC50 [4] | IC50 [5] | Ki [5] | IC50 [6] | Ki [6] | IC50 [7] | Ki [7] | IC50 [8] | Ki [8]

C[C@@H]1O[C@@H](O[C@H]2C[C@@H](O)[C@]3(CO)[C@H]4[C@H](O)C[C@]5(C)[C@@H](C6=CC(=O)OC6)CC[C@]5(O)[C@@H]4CC[C@]3(O)C2)[C@H](O)[C@H](O)[C@H]1O [OUABAIN]
Not Active: IC50 [1] | IC50 [2] | IC50 [3] | IC50 [4] | IC50 [5] | Ki [5] | IC50 [6] | Ki [6] | IC50 [7] | Ki [7] | IC50 [8] | Ki [8]

C#C[C@]1(O)CC[C@H]2[C@@H]3CCC4=CC(=O)CC[C@]4(C)[C@H]3CC[C@@]21C [ETHISTERONE]
Not Active: IC50 [1] | IC50 [2] | IC50 [3] | IC50 [4] | IC50 [5] | Ki [5] | IC50 [6] | Ki [6] | IC50 [7] | Ki [7] | IC50 [8] | Ki [8]

O=C(c1ccccc1F)N1CCC(Cc2ccccc2)CC1
Not Active: IC50 [1] | IC50 [2] | IC50 [3] | IC50 [4] | IC50 [5] | Ki [5] | IC50 [6] | Ki [6] | IC50 [7] | Ki [7] | IC50 [8] | Ki [8]

O=C(O)CCNC(=O)c1ccc(/N=N/c2ccc(O)c(C(=O)O)c2)cc1 [BALSALAZIDE]
Not Active: IC50 [1] | IC50 [2] | IC50 [3] | IC50 [4] | IC50 [5] | Ki [5] | IC50 [6] | Ki [6] | IC50 [7] | Ki [7] | IC50 [8] | Ki [8]

CN1C(=O)CN=C(c2ccccc2)c2cc([N+](=O)[O-])ccc21 [NIMETAZEPAM]
Not Active: IC50 [1] | IC50 [2] | IC50 [3] | IC50 [4] | IC50 [5] | Ki [5] | IC50 [6] | Ki [6] | IC50 [7] | Ki [7] | IC50 [8] | Ki [8]

NS(=O)(=O)c1cc(C2(O)NC(=O)c3ccccc32)ccc1Cl (stereo not given) [CHLORTHALIDONE]
Not Active: IC50 [1] | IC50 [2] | IC50 [3] | IC50 [4] | IC50 [5] | Ki [5] | IC50 [6] | Ki [6] | IC50 [7] | Ki [7] | IC50 [8] | Ki [8]

CC(=O)OCC(=O)[C@@]1(O)CC[C@H]2[C@@H]3CCC4=CC(=O)CC[C@]4(C)[C@@]3(F)[C@@H](O)C[C@@]21C [FLUDROCORTISONE ACETATE]
Not Active: IC50 [1] | IC50 [2] | IC50 [3] | IC50 [4] | IC50 [5] | Ki [5] | IC50 [6] | Ki [6] | IC50 [7] | Ki [7] | IC50 [8] | Ki [8]
